Reference: EPA's ToxValDB 9.5
Where “and” joins values, the source holds several entries; their conditions need not be identical. Equal entries are not always repeated.

Experiments:
[1] = tested on: Mus musculus; details: oral
[2] = tested on: Rattus norvegicus
[3] = developmental, duration: 17 days, F, CD1, Developmental: 323% increased prenatal loss, 16.7% decreased live fetuses, 24.3% decreased neonatal survival
[4] = developmental, duration: 17 days, F, Developmental: Significantly reduced pup survival (46%) from birth to weaning
[5] = reproduction developmental, duration: 17 days, M, CD1, Body Weight: 32% reduced weight gain during pregnancy
[6] = short-term, duration: 14 days, M, CD1, 6-12% decreased in body weight gain
[7] = short-term, duration: 15 days, F, Body Weight: Weight loss (~5%)
[8] = short-term, duration: 15 days, F, Immunotoxicological: Reduced sRBC-specific response to IgM antibody titers
[9] = short-term, duration: 21 days, M, ICR, Body Weight: 17% decrease in weight gain
[10] = short-term, duration: 21 days, M, ICR, Hepatic: 27% increase in relative liver weight at ?0.5 mg/kg/day / increases in ALT at ?[…] / hepatocytomegaly at 18 mg/kg/day / necrosis…
[11] = short-term, duration: 28 days, M, CD1, Hepatic: Mild hepatocellular hypertrophy at ?0.29, moderate to severe hypertrophy and single cell necrosis at ?0.96 mg/kg/day / decreased …
[12] = acute, duration: 4 hours, inhalation, M, CD, Ocular: Corneal opacity and corrosion
[13] = acute, duration: 15 hours, inhalation, F, Sprague-Dawley, Body Weight: 12% decrease weight gain on GDs 6-15
[14] = acute, duration: 1 days, dermal, M/F, CD, Dermal: Mild skin irritation
[15] = chronic, duration: 2 years, oral, F, Sprague-Dawley, Body Weight: […] lower terminal body weight
[16] = chronic, duration: 2 years, oral, M/F, Sprague-Dawley, Hepatic: Increased serum ALT and AST at ?[…] / hepatocellular hypertrophy at 15 mg/kg/day / hepatocellular necrosis at 15 mg/kg/day only …
[17] = chronic, duration: 2 years, oral, M, Sprague-Dawley, Reproductive: Vascular mineralization in the testes
[18] = developmental, duration: 15 hours, inhalation, F, Sprague-Dawley, Developmental: 10% decreased neonatal body weight on PND 1

With `O=C([O-])C(F)(F)C(F)(F)C(F)(F)C(F)(F)C(F)(F)C(F)(F)C(F)(F)F.[NH4+]` [Ammonium perfluorooctanoate] the LOAEL ([1]; developmental, duration: 1 days, M, CD1, Developmental: Decreased spontaneous activity and altered response to cholinergic stimulant) was 0.58 mg/kg-day, the LOAEL ([1]; developmental, duration: 10 days, F, CD1, Developmental: Altered mammary gland development in female pups / reduced pup weight on PND 20) was 5 mg/kg-day and the LOAEL ([1]; developmental, duration: 10 days, F, CD1, Developmental: Delayed mammary gland development (30-60%) in female pups on PNDs 1-10 + Reproductive: Immature mammary gland morphology in …) was 5 mg/kg-day. The NOAEL ([1]; developmental, duration: 10 days, F, CD1, Hepatic: 40-120% increased relative liver weight in lactating dams on PNDs 1-10) was 5 mg/kg-day, the LOAEL ([1]; developmental, duration: 11 days, F, CD1, Developmental: Delayed mammary gland development (31-47%) in female pups on PNDs 22-32 and at 18 months) was 5 mg/kg-day and the LOAEL ([1]; developmental, duration: 11 days, F, CD1, Developmental: Reduced pup body weight at weaning, 43% in males and 35% in females) was 5 mg/kg-day. It also gave an NOAEL ([1]; developmental, duration: 12 days, F) of 1 mg/kg-day, an LOAEL ([1]; developmental, duration: 12 days, F, Developmental: 7-10% decrease in litter weight on PND 2) of 0.5 mg/kg-day and an NOAEL ([1]; developmental, duration: 17 days, F) of 10 mg/kg-day. For the same compound, the LOAEL ([1]; developmental, duration: 17 days, F, CD1, Developmental: 3 mg/kg/day: reduced weight gain through lactation (14.8% in males and 20.6% in females) / delayed eye opening and hair …) was 3 mg/kg-day and 5 mg/kg-day, the LOAEL [1, 3] was 5 mg/kg-day and the NOAEL [1, 3] was 1 mg/kg-day. The LOAEL ([1]; developmental, duration: 17 days, F, CD1, Developmental: Decreased birth weight (approximately 8%) and body weight at weaning (24%)) was 5 mg/kg-day, the LOAEL ([1]; developmental, duration: 17 days, F, CD1, Developmental: Delayed mammary gland development in female pups on PNDs 22-63 + Reproductive: Delayed mammary gland lactational …) was 0.0024 mg/kg-day and the LOAEL ([1]; developmental, duration: 17 days, F, CD1, Developmental: Delayed mammary gland development in female pups on PNDs 22-63 and at 18 months) was 3 mg/kg-day. The LOAEL ([1]; developmental, duration: 17 days, F, CD1, Developmental: Increased prenatal loss / 40% reduced neonatal body weight on PNDs 5 and 10) was 5 mg/kg-day, the LOAEL ([1]; developmental, duration: 17 days, F, CD1, Reproductive: Delayed mammary gland differentiation) was 5 mg/kg-day and the LOAEL [1, 4] was 0.6 mg/kg-day. It also gave an NOAEL [1, 4] of 0.3 mg/kg-day, an NOAEL ([1]; reproduction developmental, duration: 11 days, F, CD1, Body Weight: No alterations in dams dosed on GDs 15-17 + Hepatic: Increase in relative liver weight in dams dosed on GDs 13-17, 10-17, or 7-…) of 20 mg/kg-day and an NOAEL ([1]; reproduction developmental, duration: 17 days, F, CD1, Hepatic: Significant increase in relative and absolute maternal liver weight on PND 22 at ?3 mg/kg/day) of 5 mg/kg-day. It also gave an LOAEL ([1]; reproduction developmental, duration: 17 days, F, CD1, Reproductive: Delayed mammary gland lactational differentiation in dams on PND 22) of 1 mg/kg-day, an NOAEL ([1]; reproduction developmental, duration: 17 days, F, Hepatic: Increased absolute and relative liver weight of dams on PND 22 at ?1 mg/kg/day) of 20 mg/kg-day and an NOAEL ([1]; reproduction developmental, duration: 17 days, M, CD1, 38% increase in absolute liver weight at ?1 mg/kg/day) of 1 mg/kg-day. The LOAEL [1, 5] was 10 mg/kg-day, the NOAEL [1, 5] was 5 mg/kg-day and the NOAEL ([1]; short-term, duration: 14 days, M/F, CD1, Hepatic: 123-155% increase in absolute liver weight in 14 days at ?5.3 mg/kg/day) was 537 mg/kg-day. It also gave an LOAEL [1, 6] of 10 mg/kg-day, an NOAEL [1, 6] of 3 mg/kg-day and an NOAEL ([1]; short-term, duration: 14 days, M, CD1, Hepatic: Decreased serum cholesterol levels at ?0.3 mg/kg/day) of 30 mg/kg-day. For the same compound, the LOAEL [1, 7] was 15 mg/kg-day, the NOAEL [1, 7] was 7.5 mg/kg-day and the LOAEL [1, 8] was 3.75 mg/kg-day. The NOAEL [1, 8] was 1.88 mg/kg-day, the NOAEL ([1]; short-term, duration: 21 days, M/F, CD1, Hepatic: 39-41% increase in absolute liver weight at ?5.4 mg/kg/day) was 5.4 mg/kg-day and the NOAEL ([1]; short-term, duration: 21 days, M, ICR) was 47 mg/kg-day. For the same compound, the LOAEL [1, 9] was 18 mg/kg-day, the NOAEL [1, 9] was 2.6 mg/kg-day and the LOAEL [1, 10] was 47 mg/kg-day. It also gave an NOAEL [1, 10] of 18 mg/kg-day, an LOAEL ([1]; short-term, duration: 28 days, F, CD1, 5/5 died before 4th week of study) of 58 mg/kg-day and an LOAEL ([1]; short-term, duration: 28 days, F, CD1, Body Weight: Males: final body weight 20% lower than controls / females: final body weight 25% lower than controls) of 5.8 mg/kg-day. The NOAEL ([1]; short-term, duration: 28 days, M/F, CD1, Hepatic: 3-fold or greater increased absolute and relative liver weight and hepatocellular hypertrophy at ?5.4 mg/kg/day) was 18 mg/kg-day, the LOAEL ([1]; short-term, duration: 28 days, M, CD1, Body Weight: Males: final body weight 20% lower than controls / females: final body weight 25% lower than controls) was 5.4 mg/kg-day and the LOAEL ([1]; short-term, duration: 28 days, M, CD1, Body Weight: Weight loss (86% of controls)) was 9.6 mg/kg-day. For the same compound, the NOAEL ([1]; short-term, duration: 28 days, M, CD1, Body Weight: Weight loss (86% of controls) + Immunotoxicological: Decreased response to sRBC, decreased number of splenic and thymic …) was 0.96 mg/kg-day, the LOAEL ([1]; short-term, duration: 28 days, M, CD1, Death: 4/5 died before end of 4th week) was 54 mg/kg-day and the LOAEL ([1]; short-term, duration: 28 days, M, CD1, Death: 5/5 died before 2nd week of study) was 180 mg/kg-day. For the same compound, the LOAEL [1, 11] was 0.96 mg/kg-day, the NOAEL [1, 11] was 0.29 mg/kg-day and the LOAEL ([1]; short-term, duration: 28 days, M, CD1, Immunotoxicological: Decreased response to sRBC, decreased number of splenic and thymic lymphocytes) was 9.6 mg/kg-day. For the same compound, the LOAEL ([2]; acute, duration: 1 hours, inhalation, M/F, albino, Neurological: Excessive salivation + Ocular: Red material around the eyes / lacrimation + Respiratory: Red nasal discharge / dry rales) was 18600 mg/m3, the LOAEL ([2]; acute, duration: 4 hours, inhalation, M, CD, Body Weight: Weight loss for 1-2 days after exposure (data not shown) + Respiratory: Pulmonary edema) was 380 mg/m3 and the LOAEL ([2]; acute, duration: 4 hours, inhalation, M, CD, Death: LC50) was 980 mg/m3. The LOAEL ([2]; acute, duration: 4 hours, inhalation, M, CD, Gastrointestinal: Stomach irritation) was 380 mg/m3, the NOAEL ([2]; acute, duration: 4 hours, inhalation, M, CD, Hepatic: Liver enlargement at 810 mg/m3 / no histological alterations) was 810 mg/m3 and the LOAEL [2, 12] was 810 mg/m3. It also gave an NOAEL [2, 12] of 380 mg/m3, an LOAEL [2, 13] of 10 mg/m3 and an NOAEL [2, 13] of 1 mg/m3. It also gave an LOAEL ([2]; acute, duration: 15 hours, inhalation, F, Sprague-Dawley, Death: 3/12 deaths on GDs 12, 13, and 17) of 25 mg/m3, an NOAEL ([2]; acute, duration: 15 hours, inhalation, F, Sprague-Dawley, Hepatic: 18% increase absolute liver weight at 25 mg/m3) of 25 mg/m3 and an LOAEL ([2]; acute, duration: 1 days, dermal, M/F, CD, Body Weight: 5-7% transient weight loss) of 3000 mg/kg-day. It also gave an LOAEL [2, 14] of 5000 mg/kg-day, an NOAEL [2, 14] of 3000 mg/kg-day and an LOAEL ([2]; acute, duration: 1 days, dermal, M, CD, Death: 14-day LD50) of 7000 mg/kg-day. For the same compound, the LOAEL ([2]; acute, duration: 1 days, oral, F, albino, Death: LD50) was 430 mg/kg-day, the LOAEL ([2]; acute, duration: 1 days, oral, M, albino, Death: LD50) was 680 mg/kg-day and the LOAEL ([2]; chronic, duration: 1 years, oral, M, CD, Body Weight: >10% reduced weight gain + Reproductive: Significant increase in serum estradiol at 1, 3, 6, 9, and 12 months (~100-180%) / …) was 13.6 mg/kg-day. For the same compound, the NOAEL ([2]; chronic, duration: 1 years, oral, M, CD, Hepatic: Increased relative liver weight) was 13.6 mg/kg-day, the NOAEL ([2]; chronic, duration: 2 years, oral, F, Sprague-Dawley) was 15 mg/kg-day and the LOAEL [2, 15] was 15 mg/kg-day. For the same compound, the NOAEL [2, 15] was 1.5 mg/kg-day, the NOAEL ([2]; chronic, duration: 2 years, oral, M/F, Sprague-Dawley) was 15 mg/kg-day and the LOAEL [2, 16] was 15 mg/kg-day. The NOAEL [2, 16] was 1.5 mg/kg-day, the LOAEL ([2]; chronic, duration: 2 years, oral, M/F, Sprague-Dawley, Other Cancer: CEL: testicular Leydig cell adenomas) was 15 mg/kg-day and the LOAEL ([2]; chronic, duration: 2 years, oral, M, CD, Body Weight: >10% reduction in weight gain most of the study + Other: Increased incidence of acinar cell + Reproductive: Increased incidence…) was 13.6 mg/kg-day. The LOAEL ([2]; chronic, duration: 2 years, oral, M, CD, Cancer: CEL: testicular Leydig cell adenomas and pancreatic acinar cell adenomas) was 13.6 mg/kg-day, the NOAEL ([2]; chronic, duration: 2 years, oral, M, CD, Hepatic: Increased relative liver weight) was 13.6 mg/kg-day and the LOAEL ([2]; chronic, duration: 2 years, oral, M, Sprague-Dawley, Other Noncancer: Inflammation of the salivary gland) was 1.5 mg/kg-day. The LOAEL [2, 17] was 15 mg/kg-day, the NOAEL [2, 17] was 1.5 mg/kg-day and the LOAEL [2, 18] was 25 mg/m3. The NOAEL [2, 18] was 10 mg/m3 and the NOAEL ([2]; developmental, duration: 10 days, oral, F, Sprague-Dawley, Developmental: No alterations in fetal body weight or teratology) was 100 mg/kg-day.
